Measurements published in BindingDB's records for doi:10.1021/acs.jmedchem.6b00965 (University of Iowa, 2017).

Legend:
[1] = Activation of BTN3A1 in human Vgamma9Vdelta2 T cells assessed as induction of interleukin 2 stimulated cell proliferation treated for 72 hrs measured on day 11 post last treatment by flow cytometry
[2] = Activation of BTN3A1 in human Vgamma9Vdelta2 T cells assessed as induction of T effector cells mediated K562 cell lysis preincubated with K562 cells for 2 hrs followed by T effector cell addition measured after 4 hrs
[3] = target: T1, Butyrophilin subfamily 3 member A1 (Homo sapiens, UniProt O00481); assay: Activation of BTN3A1 in human Vgamma9Vdelta2 T cells assessed as induction of interleukin 2 stimulated cell proliferation treated for 72 hrs measured on day 11 post last treatment by flow cytometry
[4] = target: T1, Butyrophilin subfamily 3 member A1; assay: Activation of BTN3A1 in human Vgamma9Vdelta2 T cells assessed as induction of T effector cells mediated K562 cell lysis preincubated with K562 cells for 2 hrs followed by T effector cell addition measured after 4 hrs

T1 sequence (O00481 whole entry): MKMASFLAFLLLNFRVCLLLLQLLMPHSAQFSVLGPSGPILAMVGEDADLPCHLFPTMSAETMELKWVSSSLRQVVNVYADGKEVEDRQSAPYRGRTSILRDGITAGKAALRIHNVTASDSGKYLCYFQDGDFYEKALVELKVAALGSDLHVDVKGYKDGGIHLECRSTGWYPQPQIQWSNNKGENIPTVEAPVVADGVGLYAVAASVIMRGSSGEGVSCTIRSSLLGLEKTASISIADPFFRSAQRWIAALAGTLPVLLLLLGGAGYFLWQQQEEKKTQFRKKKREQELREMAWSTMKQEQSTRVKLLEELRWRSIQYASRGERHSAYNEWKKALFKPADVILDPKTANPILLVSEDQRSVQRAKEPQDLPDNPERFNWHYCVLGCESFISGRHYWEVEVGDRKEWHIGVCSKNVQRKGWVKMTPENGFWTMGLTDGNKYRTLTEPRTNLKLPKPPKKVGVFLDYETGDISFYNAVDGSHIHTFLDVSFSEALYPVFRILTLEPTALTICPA

| Compound | EC50 [1] | EC50 [2] | EC50 [3] | EC50 [4] |
| --- | --- | --- | --- | --- |
| COP(=O)(CC/C=C(\C)CO)CP(=O)(OC)OC (stereo not drawn) | > 100 µM | > 100 µM | – | – |
| C/C(=C\CCP(=O)(CP(=O)(OCOC(=O)C(C)(C)C)OCOC(=O)C(C)(C)C)OCOC(=O)C(C)(C)C)CO (stereo not drawn) | – | 0.28 µM | – | – |
| CC(=CCCP(=O)(O)CP(=O)(O)O)CO | – | 41 µM | – | – |
| CC(C)=CCCP(=O)(CP(=O)(OCOC(=O)C(C)(C)C)OCOC(=O)C(C)(C)C)OCOC(=O)C(C)(C)C (stereo not drawn) | > 100 µM | 7.3 µM | – | – |
| [C]C([C])=[C][C][C]P(=O)(O)[C]P(=O)(O)O | – | – | > 100 µM | > 100 µM |
